Legend:
SMN FL and SMN Δ7 = assay: Quantitative splicing assay (SMN) in SMA patient fibroblasts (GM03813); assay type: cell-based; details: Homo sapiens, Fibroblast; class symbol; read-out: SMN2 Splicing FL EC50 (nM)*
Experimental: Spinal muscular atrophy (SMA) patient fibroblasts (GM03813, Coriell) are plated in 96-well plates at 50,000 cells/well. […] Treated cells are lysed and cDNA synthesized using the Fast Advanced Cells-to-Ct kit (Thermofisher A35378) according to the manufacturer's instructions. 2 μL of each cDNA are used in qPCR reactions. […] Reactions are run in a Quant Studio 6 qPCR instrument with default settings.

SMN protein = SMN protein assay (MSD) in SMA patient fibroblasts (GM03813); assay type: cell-based, human
Procedure, shortened: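 SMA patient fibroblasts GM03813 (7000 cells/well) treated 48 h with compounds from 2.5 μM to 0.6 nM. Lysate SMN protein quantified by MSD immunoassay against an SMN standard curve (1 to 19.5 μg/ml) on each plate, giving absolute amounts.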

[1] = system: MDR1-MDCK cell monolayers; details: dog, MDCK-MDR1, 120 min, 5 μM, pH 7.4
Experimental: (§1) Experimental Procedure: MDR1-MDCK cell monolayers are grown to confluence on collagen-coated, microporous membranes in 12-well assay plates. The permeability assay buffer is Hanks' balanced salt solution containing 10 mM HEPES and 15 mM glucose at a pH of 7.4. The buffer in the receiver chamber also contained 1% bovine serum albumin. The dosing solution concentration is 5 μM of test article in the assay buffer. Cell monolayers are dosed on the apical side (A-to-B) or basolateral side (B-to-A) and incubated at 37° C. with 5% CO2 in a humidified incubator. Samples are taken from the donor and receiver chambers at 120 minutes. Each determination is performed in duplicate. The flux of lucifer yellow is also measured post-experimentally for each monolayer to ensure no damage was inflicted to the cell monolayers during the flux period. All samples are assayed by LC-MS/MS using electrospray ionization.
(§2) Analytical Method: Liquid Chromatography • Column: Waters ACQUITY UPLC BEH Phenyl 30×2.1 mm, 1.7 μm • M.P. Buffer: 25 mM ammonium formate buffer, pH 3.5 • Aqueous Reservoir (A): 90% water, 10% buffer • Organic Reservoir (B): 90% acetonitrile, 10% buffer • Flow Rate: 0.7 mL/minute • Gradient Program:
(§3) • Total Run Time: 1.00 minute • Autosampler: 2 μL injection volume • Wash1: water/methanol/2-propanol:1/1/1; with 0.2% formic acid • Wash2: 0.1% formic acid in water • Brain Penetration • Potential Classification: A-B Papp≥3.0 and Efflux Ratio<3.0: High • A-B Papp≥3.0 and 10>Efflux Ratio≥3.0: Moderate • A-B Papp≥3.0 and Efflux Ratio≥10: Low • A-B Papp<3.0: Low

MDR1 = assay: in vitro; details: dog; for Papp A→B at 120 min, 5 μM: MDCK-MDR1, pH 7.4, MDCK-MDR1: Papp A-B (10^−6, cm/s); for Papp B→A at 120 min, 5 μM: MDCK-MDR1, pH 7.4, MDCK-MDR1: Papp B-A (10^−6, cm/s)
Experimental: as §1, §2, §3

MDR1 (P-gp) = assay: MDCK-MDR1 permeability assay, blood-brain-barrier penetration potential; details: dog, MDCK-MDR1, pH 7.4, MDCK-MDR1 Efflux Ratio
Experimental: as §1, §2, §3

SMILES	EC50 (SMN FL and SMN Δ7) [nM]	EC50 (SMN protein) [nM]	MDCK-MDR1: % Recov A-B (%) [1] [%]	MDCK-MDR1: % Recov B-A (%) [1] [%]	Papp A→B at 120 min, 5 μM (MDR1) [×10⁻⁶ cm/s]	Papp B→A at 120 min, 5 μM (MDR1) [×10⁻⁶ cm/s]	efflux ratio at 120 min, 5 μM (MDR1 (P-gp))
CN(c1cnc(-c2ccc(-c3cnn(C)c3)cc2O)cn1)[C@@H]1C[C@H]2CCC(N2)[C@@H]1F (single isomer, unassigned) [Compound 3E1]	101 to 500	16 to 50	56	66	8.42	22	3
CN(c1cnc(-c2ccc(-c3cnn(C)c3)cc2O)cn1)[C@H]1CC2CC[C@@H](N2)[C@H]1F (single isomer, unassigned) [Compound 3E2]	101 to 500	16 to 50	53	68	9.7	27.1	3
CN(c1cnc(-c2ccc(-c3ccn(C)c(=O)c3)cc2O)cn1)[C@H]1CC2CCC[C@@H](N2)[C@H]1F (single isomer, unassigned) [Compound 5E2]	101 to 500	16 to 50	78	82	1.96	43	22
CN(c1cnc(-c2ccc(-c3cn[nH]c3)cc2O)cn1)[C@H]1CC2CCC[C@@H](N2)[C@H]1F (single isomer, unassigned) [Compound 6E2]	16 to 50	0.01 to 15	70	58	3.67	22.2	6
CN(C)C(=O)c1cc2cc(O)c(-c3cnc(N(C)[C@@H]4C[C@H]5CCC(N5)[C@@H]4F)cn3)cc2o1 (single isomer, unassigned) [Compound 7E1]	501 to 10000	501 to 10000	91	88	1.78	42.4	24
CN(C)C(=O)c1cc2cc(O)c(-c3cnc(N(C)[C@H]4CC5CC[C@@H](N5)[C@H]4F)cn3)cc2o1 (single isomer, unassigned) [Compound 7E2]	501 to 10000	501 to 10000	90	93	1.92	59.9	31
CN(c1cnc(-c2cc3ncn(CC(F)(F)F)c(=O)c3cc2O)cn1)[C@H]1C[C@@H]2CCC[C@@H](N2)[C@H]1F [Compound 18E2, 7-(5-(((1R,2R,3S,5S)-2-fluoro-9-azabicyclo[3.3.1]nonan-3-yl)(methyl)amino)pyrazin-2-yl)-6-hydroxy-3-(2,2,2-trifluoroethyl)quinazolin-4(3H)-one]		501 to 10000	82	87	1.33	73.5	56
CN(c1cnc(-c2ccc(-c3cn[nH]c3)cc2O)cn1)[C@@H]1C[C@@]2(C)CCC[C@](C)(N2)[C@@H]1F [Compound 23E1, 2-(5-(((1S,2R,3R,5R)-2-fluoro-1,5-dimethyl-9-azabicyclo[3.3.1]nonan-3-yl)(methyl)amino)pyrazin-2-yl)-5-(1H-pyrazol-4-yl)phenol]		501 to 10000	56	78	9.07	38.7	4
COc1cc(-c2ccc(-c3cnc(N(C)[C@@H]4C[C@@]5(C)CCC[C@](C)(N5)[C@@H]4F)cn3)c(O)c2)cnn1 [Compound 24E1, 2-(5-(((1S,2R,3R,5R)-2-fluoro-1,5-dimethyl-9-azabicyclo[3.3.1]nonan-3-yl)(methyl)amino)pyrazin-2-yl)-5-(6-methoxypyridazin-4-yl)phenol]		101 to 500	40	42	1.93	5.01	3
COc1cc(-c2ccc(-c3cnc(N(C)[C@H]4C[C@]5(C)CCC[C@@](C)(N5)[C@H]4F)cn3)c(O)c2)cnn1 [Compound 24E2, 2-(5-(((1R,2S,3S,5S)-2-fluoro-1,5-dimethyl-9-azabicyclo[3.3.1]nonan-3-yl)(methyl)amino)pyrazin-2-yl)-5-(6-methoxypyridazin-4-yl)phenol]		501 to 10000	37	44	3.01	6.99	2
CN(c1cnc(-c2ccc(-c3cn[nH]c3)cc2O)cn1)[C@@H]1C[C@@]2(C)CC[C@H](N2)[C@@H]1F [Compound 28E4, 2-(5-(((1R,3R,4S,5S)-4-fluoro-1-methyl-8-azabicyclo[3.2.1]octan-3-yl)(methyl)amino)pyrazin-2-yl)-5-(1H-pyrazol-4-yl)phenol]		501 to 10000	68	84	4.42	48.4	11
CN(c1cnc(-c2cc(F)c(-c3ccn(CF)c(=O)c3)cc2O)cn1)[C@@H]1C[C@H]2CC[C@H](N2)[C@@H]1F [Compound 32E1, 4-(2-fluoro-4-(5-(((1S,2S,3R,5R)-2-fluoro-8-azabicyclo[3.2.1]octan-3-yl)(methyl)amino)pyrazin-2-yl)-5-hydroxyphenyl)-1-(fluoromethyl)pyridin-2(1H)-one]		501 to 10000	101	92	3.13	58.7	19
Cn1cc(-c2cc(O)c(-c3cnc(N(C4CC4)[C@@H]4C[C@H]5CC[C@H](N5)[C@@H]4F)cn3)cc2F)cn1 [Compound 35E1, 2-(5-(cyclopropyl((1S,2S,3R,5R)-2-fluoro-8-azabicyclo[3.2.1]octan-3-yl)amino)pyrazin-2-yl)-4-fluoro-5-(1-methyl-1H-pyrazol-4-yl)phenol]		501 to 10000	36	62	3	17.9	6
CN(c1cnc(-c2cc(F)c(-c3cnn(C)c3)cc2O)cn1)[C@@H]1C[C@@]2(C)CC[C@](C)(N2)[C@@H]1F [Compound 58E1, 4-fluoro-2-(5-(((1S,2R,3R,5R)-2-fluoro-1,5-dimethyl-8-azabicyclo[3.2.1]octan-3-yl)(methyl)amino)pyrazin-2-yl)-5-(1-methyl-1H-pyrazol-4-yl)phenol]		101 to 500	37	64	7.67	22.1	3
CNC(=O)/C=C/c1cc(O)c(-c2cnc(N(C)[C@@H]3C[C@@]4(C)CC[C@](C)(N4)[C@@H]3F)cn2)cc1F [Compound 61E1, (E)-3-(2-fluoro-4-(5-(((1S,2R,3R,5R)-2-fluoro-1,5-dimethyl-8-azabicyclo[3.2.1]octan-3-yl)(methyl)amino)pyrazin-2-yl)-5-hydroxyphenyl)-N-methylacrylamide]		16 to 50	86	95	1.97	57.4	29
Cn1cc(-c2ccc(-c3cnc(N(C4CC4)[C@@H]4C[C@@]5(C)CC[C@](C)(N5)[C@@H]4F)cn3)c(O)c2)cn1 [Compound 75E1, 2-(5-(cyclopropyl((1S,2R,3R,5R)-2-fluoro-1,5-dimethyl-8-azabicyclo[3.2.1]octan-3-yl)amino)pyrazin-2-yl)-5-(1-methyl-1H-pyrazol-4-yl)phenol]		501 to 10000	40	70	2.11	16.1	8
Cn1cc(-c2ccc(-c3cnc(N(C4CC4)[C@H]4C[C@]5(C)CC[C@@](C)(N5)[C@H]4F)cn3)c(O)c2)cn1 [Compound 75E2, 2-(5-(cyclopropyl((1R,2S,3S,5S)-2-fluoro-1,5-dimethyl-8-azabicyclo[3.2.1]octan-3-yl)amino)pyrazin-2-yl)-5-(1-methyl-1H-pyrazol-4-yl)phenol]		101 to 500	38	66	2.39	16.9	7
CNC(=O)/C=C/c1cc(O)c(-c2cnc(N(C3CC3)[C@@H]3C[C@@]4(C)CC[C@](C)(N4)[C@@H]3F)cn2)cc1F [Compound 79E1, (E)-3-(4-(5-(cyclopropyl((1S,2R,3R,5R)-2-fluoro-1,5-dimethyl-8-azabicyclo[3.2.1]octan-3-yl)amino)pyrazin-2-yl)-2-fluoro-5-hydroxyphenyl)-N-methylacrylamide]		501 to 10000	84	88	1.67	45.3	27

Reference: US11964971B2, “Methods and compositions for modulating splicing” (Skyhawk Therapeutics, Inc., priority 2019, dated 2024)
